Measurements from US11491168B2, “Combination of Bcl-2/Bcl-xL inhibitors and chemotherapeutic agent and use thereof” (ASCENTAGE PHARMA (SUZHOU) CO., LTD., priority 2019, dated 2022).
Values joined by “and” are separate entries in the source; they are usually repeats but may differ in a detail not shown here. Equal values may be shown once.

Legend:
AGS cells = assay: AnnexinV/PI staining apoptosis, AGS; assay type: cell-based; settings: 48 hours, Compound 31 0.3 μM, 5-FU 3 μM
Procedure: (§1) The inventors chose to combine Compound 31 with one of the most common chemotherapeutic drugs in clinic, 5-fluorouracil (5-FU). In order to investigate the effect and the potential mechanisms of Compound 31 and 5-FU on the growth of gastric cancer cells, the inventors used the AnnexinV/PI staining to detect the apoptosis of two gastric cancer cells, AGS and NCI-N87, 48 hours after the treatment with Compound 31 (0.3 μM), 5-FU (3 μM), and the combination at specified concentrations. […] In NCI-N87 cells, the combination group also achieved a higher apoptosis rate than the mono therapy groups, Compound 31 or 5-FU as a single agent leading to apoptosis rates of 24% or 18% while the combination group reaching an apoptosis rate of 46% (FIG. 29(a)).

NCI-N87 cells = assay: AnnexinV/PI staining apoptosis, NCI-N87; assay type: cell-based; settings: NCI-N87, 48 hours; Compound 31 0.3 μM, 5-FU 3 μM
Procedure: as §1

NCI-N87 xenograft = NCI-N87 xenograft model, Compound 15 with 5-FU; settings: Compound 15 50 mg/kg qd 10 days; 5-FU 25 mg/kg once a week for two weeks
[1] = system: human SW620 cell line colon cancer xenograft; assay: SW620 colon cancer xenograft model; assay type: in vivo, mice; settings: single agents: Compound 15 100 mg/kg; irinotecan 50 mg/kg
Procedure: (§4) Subcutaneous xenograft tumor model of human cancer was established in immunodeficient mouse by cell inoculation: tumor cells in logarithmic growth phase were collected, counted, and then re-suspended in 1×PBS. The concentration of the cell suspension was adjusted to 2.5-5×10^7/mL. Tumor cells were inoculated subcutaneously in the right back of the immunized normal mouse with a 1 mL syringe (4 gauge needle) at 5-10×10^6/0.2 mL/mouse.
(§5) Animal weight and tumor size were measured twice a week during the study. The animals were checked daily for morbility and etc. […] Mortality and clinical signs observed during the study were recorded in the raw data. […]
(§6) Tumor volume (TV) was calculated as: TV=a×b^2/2 wherein a and b represent the measured length and width of tumor, respectively.
(§7) Relative tumor volume (RTV) was calculated as: RTV=Vt/V1 wherein V1 was the tumor volume on the first day of dosing, and Vt was the tumor volume measured on day t after dosing.
(§8) Relative tumor proliferation rate T/C (%), as an indication of anti-tumor effectiveness, was calculated as: Relative tumor proliferation rate T/C (%)=(TRTV/CRTV)×100%, wherein TRTV was RTV in treatment group, and CRTV was RTV in vehicle control group. […]

[2] = system: SCLC patient-derived xenograft LU5250; assay: LU5250 SCLC patient-derived xenograft; assay type: in vivo, female NOD.SCID mice; settings: for T/C (%) @ day 21: doses as Table 3; for RTV @day 21: mean ± SEM, Compound 15 50 mg/kg i.v. BIW, Irinotecan 10 mg/kg i.p. Q4D, Paclitaxel 10 mg/kg i.v. Q4D
Procedure: (§2) The therapeutic efficacy of compound 15 alone and its multiple combinations in the treatment of subcutaneous HuPrime® Lung cancer xenograft model LU5250 and LU5188 in female NOD.SCID mice was evaluated.
(§3) Either LU5250 or LU5188 tumor mass with rough size of 3×3×3 mm^3 were inoculated into female NOD.SCID mice and the day of randomization was denoted as day 1. The treatment was initiated on day 1 when tumors approximated a mean volume 136 mm^3 of LU5250 and 155 mm^3 of LU5188, respectively. There were 6 groups enrolled in each model eventually. See Table 3 for the mode of administration and doses. Both models were taken down on day 21.

[3] = system: SCLC patient-derived xenograft LU5188; assay: LU5188 SCLC patient-derived xenograft; assay type: in vivo, female NOD.SCID mice; settings: for T/C (%) @ day 21: doses as Table 3; for RTV @day 21: mean ± SEM, Compound 15 50 mg/kg i.v. BIW, Irinotecan 10 mg/kg i.p. Q4D, Paclitaxel 10 mg/kg i.v. Q4D
Procedure: as §2, §3

[4] = system: subcutaneous NCI-H146 lung cancer xenograft; assay: NCI-H146 lung cancer xenograft model (Example 8); assay type: in vivo, female SCID mice; settings: for RTV @day 21: Compound 15 20 mg/kg i.v. BIW, Irinotecan 5 mg/kg i.p. QW, Paclitaxel 10 mg/kg i.v. QW, Cisplatin 1 mg/kg i.p. Q4D; for mRECIST_best: best response during the treatment, PR partial response, CR complete response, SD stable disease, PD progressive disease; for T/C (%) @ day 21: doses as Table 6; for mRECIST_last: response on the last day of treatment, PR, CR, SD, PD
Procedure: The therapeutic efficacy of compound 15 alone and in multiple combinations in the treatment of subcutaneous NCI-H146 lung cancer xenograft model was evaluated.
1×10^7 NCI-H146 tumor cells were pre-treated in 0.1 mL of phosphate buffer and Matrigel (7:3) and inoculated into female SCID mice. The day of randomization was denoted as day 1. The treatment was initiated on day 1. The study was conducted in 8 groups of mice. See Table 6 for the mode of administration and doses. The entire study was taken down on day 21. The study was conducted in 40 mice. All the animals were randomized into 8 experimental groups.

[5] = system: human MGC80-3 cell line gastric cancer xenograft; assay: MGC80-3 gastric cancer xenograft model
Procedure: as §4
Animal weight and tumor size were measured twice a week during the study. The animals were checked daily for morbility and etc. At the time of routine monitoring, the animal were checked for any effects of tumor growth and treatments on behaviors such as mobility, food and water consumption, body weight gain/loss, eyes, hairing and any other abnormalities. Mortality and clinical signs observed during the study were recorded in the raw data. The dosing of the drugs and the measurement of mouse weight and tumor volume were all conducted in a laminar flow cabinet. According to requirements of the study protocol, plasma and tumor tissue were collected, weighed and photographed at the end of last dosing. Plasma and tumor samples were frozen at −80° C. for later use.
as §6, §7
Relative tumor proliferation rate T/C (%), as an indication of anti-tumor effectiveness, was calculated as: Relative tumor proliferation rate T/C (%)=(TRTV/CRTV)×100%, wherein TRTV was RTV in treatment group, and CRTV was RTV in vehicle control group.
Tumor remission rate (%) was calculated by dividing the number of tumor bearing mice that show SD (stable disease), PR (partial regression) and CR (complete regression) after treatment by the total number of mice in the group×100%. Change of body weight (%)=(measured body weight−body weight at randomization)/body weight at randomization×100%.

[6] = system: human PC3 cell line prostate cancer xenograft; assay: PC3 prostate cancer xenograft model; settings: Compound 15 100 mg/kg; docetaxel 8 mg/kg
Procedure: as §4, §5, §6, §7, §8

[7] = FIG. 6: Compound 15 100 mg/kg, docetaxel 12 mg/kg, cisplatin 3 mg/kg

SMILES	apoptosis rate (AGS cells)	apoptosis rate (NCI-N87 cells)	mouse tumor volume upon the end point (NCI-N87 xenograft)	T/C (%) [1]	T/C (%) @ day 21 [2]	RTV @day 21 [2]	T/C (%) @ day 21 [3]	RTV @day 21 [3]	RTV @day 21 [4]	mRECIST_best [4]	T/C (%) @ day 21 [4]	mRECIST_last [4]	T/C (%) [5, 7]	T/C (%) [6]	T/C (%) ([5]; FIG. 5: Compound 15 100 mg/kg, docetaxel 8 mg/kg)
O=c1[nH]cc(F)c(=O)[nH]1 [Compound 5-FU, 5-fluorouracil, reference compound]	~15%	18%	2200 mm^3												
CCc1c2c(nc3ccc(OC(=O)N4CCC(N5CCCCC5)CC4)cc13)-c1cc3c(c(=O)n1C2)COC(=O)[C@]3(O)CC [Irinotecan, irinotecan]				29.9%	26.9%	1.92 ± 0.24	61.8%	8.41 ± 2.49	1.0 ± 0.2	3/5 PR and 2/5 SD	34.4%	1/5 PR, and 3/5 SD, and 1/5 PD			
CC(=O)O[C@H]1C(=O)[C@@]2(C)[C@H]([C@H](OC(=O)c3ccccc3)[C@]3(O)C[C@H](OC(=O)[C@H](O)[C@@H](NC(=O)c4ccccc4)c4ccccc4)C(C)=C1C3(C)C)[C@]1(OC(C)=O)CO[C@@H]1C[C@@H]2O [Paclitaxel, paclitaxel]					32.6%	2.33 ± 0.13	151.1%	20.55 ± 3.20	1.4 ± 0.4	3/5 PR, and 2/5 SD	48.4%	3/5 SD, and 2/5 PD			
N.N.[Cl][Pt][Cl] [cisplatin]									2.6 ± 0.2	2/5 SD, and 3/5 PD	90.2%	5/5 PD	65.0%		
CC(=O)O[C@@]12CO[C@@H]1C[C@H](O)[C@@]1(C)C(=O)[C@H](O)C3=C(C)[C@@H](OC(=O)[C@H](O)[C@@H](NC(=O)OC(C)(C)C)c4ccccc4)C[C@@](O)([C@@H](OC(=O)c4ccccc4)[C@H]21)C3(C)C [docetaxel]													39.0%	72.4%	54.5%
